Some results are limits rather than exact numbers.

The target in test [1] is T1, trkA (Homo sapiens, UniProt P04629).
T1 construct: expressed in transfected cells; host or cells: NIH3T3 cells
In kind it is cell-based. The following applies: NIH3T3 cells; for inhibition at 0.001 µM: 1 nM compound, read-out: Inhibition Score 1 nM; for inhibition at 0.001 µM / inhibition at 0.01 µM / inhibition at 0.05 µM / inhibition at 0.1 µM: NGF 10 ng/ml, percent decrease in trk protein band; for inhibition at 0.01 µM: 10 nM compound, read-out: Inhibition Score 10 nM; for inhibition at 0.05 µM: 50 nM compound, read-out: Inhibition Score 50 nM; for inhibition at 0.1 µM: 100 nM compound, read-out: Inhibition Score 100 nM.
Description: NIH3T3 cells transfected with trkA were grown in 100 mm dishes. […] NGF (Harlan/Bioproducts for Science) was then added to the cells at a concentration of 10 ng/ml for 5 minutes. Cells were lysed in buffer containing detergent and protease inhibitors. Clarified cell lysates were normalized to protein using BCA method and immunoprecipitated with anti-trk antibody.
The immune complexes were collected on Protein A Sepharose beads (Sigma), separated by SDS polyacrylamide gel electrophoresis (SDS-PAGE), and transferred to a polyvinylidene difluoride (PVDF) membrane. The membrane was immunoblotted with anti-phosphotyrosine antibody (UBI), followed by incubation with horseradish peroxidase coupled goat anti-mouse IgG (Bio-Rad).. Phosphorylated proteins were visualized using ECL (Amersham).
The area of the trk protein band was measured and compared to NGF-stimulated control.

Test [2] concerns the target T2, protein kinase C (UBI; mixed isozymes of a, b, g).
T2 construct: 1.5 ng protein kinase C (UBI)
Description: Inhibition of protein kinase C activity (Multiscreen TCA in-plate assay). In kind it is biochemical. The following applies: read-out: PKC IC50. On the procedure: Assays were performed in 96-well Multiscreen-DP plates (Millipore). […] The reaction was allowed to proceed for 10 min at 37° C. […] The IC50 values were calculated by fitting the data to the sigmoidal dose-response (variable slope) equation in GraphPad Prism.

For test [3], the target named is T3, baculovirus-expressed human trkA cytoplasmic domain (Homo sapiens, UniProt P04629).
T3 construct: baculovirus-expressed human trkA cytoplasmic domain; made in house; host or cells: baculovirus expression system (insect cells)
T3 sequence (P04629 440-796 limits assumed): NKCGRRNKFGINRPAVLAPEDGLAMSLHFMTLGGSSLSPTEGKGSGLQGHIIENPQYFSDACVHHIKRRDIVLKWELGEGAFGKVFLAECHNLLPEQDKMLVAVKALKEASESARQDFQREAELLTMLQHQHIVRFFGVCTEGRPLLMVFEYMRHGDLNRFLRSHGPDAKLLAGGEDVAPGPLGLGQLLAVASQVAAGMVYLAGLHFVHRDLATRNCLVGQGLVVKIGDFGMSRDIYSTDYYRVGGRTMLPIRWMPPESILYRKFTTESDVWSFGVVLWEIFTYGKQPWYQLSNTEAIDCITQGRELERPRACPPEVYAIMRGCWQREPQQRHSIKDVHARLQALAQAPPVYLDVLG
Description: Inhibition of trkA kinase activity (ELISA-based assay). The following applies: 40 μM ATP, read-out: trk IC50. The format is biochemical. The procedure: An antibody to phosphotyrosine (UBI) was then added, followed by a secondary enzyme-conjugated antibody, alkaline phosphatase-labelled goat anti-mouse IgG (Bio-Rad). The activity of the bound enzyme was measured using an amplified detection system (Gibco-BRL). Inhibition data were analyzed using the sigmoidal dose-response (variable slope) equation in GraphPad Prism.

The subject of test [4] is dissociated rat embryonic spinal cord culture (ChAT activity). Description: Enhancement of spinal cord ChAT activity in dissociated rat embryonic spinal cord culture. The following applies: ChAT measured after 2 days in vitro. The format is cell-based. An excerpt:
ChAT was employed a biochemical marker for functional cholinergic neurons. CHAT activity has been used to study the effects of neurotrophins (e.g., NGF or NT-3) on the survival and/or function of cholinergic neurons. The ChAT assay also has been used as an indication of the regulation of ChAT levels within cholinergic neurons. […] In these assays, a compound was directly added to a dissociated spinal cord culture. […] Neurochem.

The subject of test [5] is rat spinal cord motoneurons. Description: Survival assay using rat spinal cord motoneurons (calcein AM viability). The format is cell-based. Particulars: cultures enriched for motoneurons, survival assessed after 4 days (FIG. 8). The procedure:
Spinal cords were dissected from Sprague-Dawley rat fetuses (Charles River Laboratories, Wilmington, Mass.) of embryonic age (E) 14.5-15. Cells from only the ventral portion of the spinal cord were dissociated, and further enriched for motoneurons by centrifugation on a 6.5% step metrizamide gradient, and were analyzed for purity by staining with low affinity neurotrophin receptor antibody (IgG-192, Boehringer-Mannheim). Cells were seeded onto 96-well plates previously coated with poly-1-ornithine and laminin (5 ug/ml each) at a density of 6×10^4 cells/cm^2 in chemically defined serum-free N2 medium (Bottenstein and Sato, 1979). To distinguish attachment from survival effects, 3,9-bis[(ethylthio)methyl]-K-252a (Kaneko et. al., J. Med. Chem 40:1863-1869, 1997) was added to cultures after an initial attachment period of 1-3 hours.
Neuronal survival was assessed after 4 days by calcein AM (Molecular Probes, Eugene, Oreg.) in a fluorimetric viability assay (Bozyczko-Coyne et. al., J. Neurosci. Meth. 50:205-216, 1993). […] The fluorescent signal was read using a plate-reading fluorimeter (Cytofluor 2350) (excitation=485 nm; emission=538 nm). […] Linearity of the fluorescence signal was verified for the concentration and incubation time for the range of cell densities. Microscopic counts of neurons correlated directly with relative fluorescence values.

T1 sequence (P04629 33-796, species assumed): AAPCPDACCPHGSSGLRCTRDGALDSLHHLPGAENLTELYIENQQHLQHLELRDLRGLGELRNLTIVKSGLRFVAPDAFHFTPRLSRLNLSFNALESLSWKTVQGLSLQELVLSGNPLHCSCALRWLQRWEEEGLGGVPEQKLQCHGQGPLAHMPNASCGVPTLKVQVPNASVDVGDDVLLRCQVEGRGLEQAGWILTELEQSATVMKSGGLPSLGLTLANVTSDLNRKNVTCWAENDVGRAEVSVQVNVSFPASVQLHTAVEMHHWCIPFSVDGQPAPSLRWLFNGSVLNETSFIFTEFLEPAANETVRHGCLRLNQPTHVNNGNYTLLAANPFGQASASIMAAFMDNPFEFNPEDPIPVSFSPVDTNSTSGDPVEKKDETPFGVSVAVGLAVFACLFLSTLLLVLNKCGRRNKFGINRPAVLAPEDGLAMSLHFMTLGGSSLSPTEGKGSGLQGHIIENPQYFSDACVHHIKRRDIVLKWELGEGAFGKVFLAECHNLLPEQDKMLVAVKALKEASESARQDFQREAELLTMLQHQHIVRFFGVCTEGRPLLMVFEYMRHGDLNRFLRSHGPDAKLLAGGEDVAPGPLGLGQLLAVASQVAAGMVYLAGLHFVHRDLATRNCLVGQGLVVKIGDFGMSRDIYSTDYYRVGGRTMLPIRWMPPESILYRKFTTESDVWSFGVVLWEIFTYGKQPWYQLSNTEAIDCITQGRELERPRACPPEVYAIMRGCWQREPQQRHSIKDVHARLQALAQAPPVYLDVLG

As for `C[C@@]1(O)CC2O[C@]1(C)n1c3ccccc3c3c4c(c5c6ccccc6n2c5c31)C(=O)NC4` [Compound XXIX, reference compound], in test [1], the inhibition at 0.001 µM lay in the range of 26 to 49%, the inhibition at 0.01 µM was 50 to 75%, the inhibition at 0.05 µM lay within 50 to 75% and the inhibition at 0.1 µM lay in the range of 50 to 75%. For the same compound, in test [1] (100 nM), the “complete inhibition of trkA at 100 nM” value is listed as “did not show complete inhibition”. The IC50 in test [2] worked out at 310 nM.
On to `C[C@]12OC(C[C@@]1(O)C(N)=O)n1c3ccccc3c3c4c(c5c6ccccc6n2c5c31)CNC4=O` [Compound XV], for which, in test [3], the IC50 was 21 nM. Moreover, the “Spinal Cord ChAT % control, Maximal Activity” value in test [4] came out at 129 % control.
As for `C[C@]1(O)CC2O[C@]1(C)n1c3ccccc3c3c4c(c5c6ccccc6n2c5c31)C(=O)NC4` [Compound X], the IC50 in test [3] came out at 2 nM. In addition, in test [1], the inhibition at 0.001 µM fell in the range of 26 to 49%, the inhibition at 0.01 µM lay within 50 to 75%, the inhibition at 0.05 µM was 76 to 100% and the inhibition at 0.1 µM was 76 to 100%. In test [1], the “concentration giving complete inhibition of trkA” value is < 50 nM. Also, in test [1] (NGF-stimulated, read-out: IC50 for inhibiting trk in a whole cell preparation), the IC50 is < 10 nM. In addition, in test [2], the IC50 was > 1000 nM. Besides, in test [4], the “Spinal Cord ChAT % control, Activity at 50 nM” value is <120 % control and the “Spinal Cord ChAT % control, Maximal Activity” value was 127 % control.
`C[C@]12OC(C[C@@]1(O)CO)n1c3ccccc3c3c4c(c5c6ccccc6n2c5c31)CNC4=O` [Compound VII]: in test [1], the inhibition at 0.001 µM is 1 to 25%, the inhibition at 0.01 µM fell in the range of 26 to 49%, the inhibition at 0.05 µM lay in the range of 76 to 100% and the inhibition at 0.1 µM is 76 to 100%. In addition, the IC50 in test [2] was determined as 79 nM. Further, in test [4], the “Spinal Cord ChAT % control, Activity at 50 nM” value is given as <120 % control.
As for `C[C@@]12C=C[C@@H](O1)n1c3ccccc3c3c4c(c5c6ccccc6n2c5c31)CNC4=O` [Compound XXIII], the IC50 is 4 nM in test [3] and > 1000 nM in test [2].
Consider `C[C@]12OC(C[C@@]1(O)C(=O)O)n1c3ccccc3c3c4c(c5c6ccccc6n2c5c31)CNC4=O` [Compound XVI], for which the “survival of spinal cord motoneurons” value in test [5] was “significantly enhanced survival”.
As to `COC(=O)[C@]1(O)CC2O[C@]1(C)n1c3ccccc3c3c4c(c5c6ccccc6n2c5c31)C(=O)NC4` [Compound XIV, 3′-(R)-K-252a], in test [4], the “Spinal Cord ChAT % control, Activity at 50 nM” value is listed as 147 % control and the “Spinal Cord ChAT % control, Maximal Activity” value is reported as 195 % control.
Consider `C[C@]12OC(C[C@H]1CO)n1c3ccccc3c3c4c(c5c6ccccc6n2c5c31)CNC4=O` [Compound VI], for which the IC50 in test [3] was determined as 2 nM; in test [2], 95 nM. Besides, the “Spinal Cord ChAT % control, Activity at 50 nM” value in test [4] is on record as <120 % control. The “Spinal Cord ChAT % control, Maximal Activity” value in test [4] came to 125 % control.
With `C[C@@]1(O)C[C@H]2O[C@]1(C)n1c3ccccc3c3c4c(c5c6ccccc6n2c5c31)C(=O)NC4` [Compound XXIX, reference compound], the IC50 in test [3] turned out to be 7 nM.

The record behind these values is patent publication US6451786B1 (Cephalon, Inc., priority 1997, dated 2002).
